Where two headings read alike, the source gives them in different places. Each block holds one compound with its values, some of them ahead of it.
How the values were obtained:
[1] = system: leukotriene B4 synthesis in white blood cells; assay: Test 3: LTB4 formation by white blood cells; type: cell-based; conditions: Homo sapiens, read-out: Test 3 residual activity (LTB4 formation), percent of control
Description: TEST 3. LTB4 formation by white blood cells
Isolation of white blood cells:
40 ml of human blood were mixed with 8 ml of 6% dextran solution (dextran, mw: 480,000 in PM16). After one hour at room temperature, the supernatant,which was composed of white blood cells, was removed, diluted with an equal volume of PM16, and centrifuged for 15 minutes at 300×g (1600 rpm). The sediment was next resuspended in approximately 5-6 ml of PM16 and, once the cell count had been determined in a Coulter Counter, adjusted to 10^7 cells/ml.
The test mixture comprised 0.24 ml of cell suspension, 0.03 ml of 20 mM CaCl2 /5 mM MgCl2 and 5 μl of test substance. Following 15 minutes of preincubation at 37° C., the reaction was started with 0.03 ml of A23187/glutathione (100 μg of A23187/ml; 15.4 μg of glutathione/ml). The incubation was terminated after 5 minutes at 37° C. by immediate cooling of the samples down to 0° C. After centrifuging for 2 minutes in an Eppendorff Centrifuge (0° C.), the supernatant was removed and examined chromatographically.
High pressure liquid chromatography (HPLC): the HPLC equipment comprises a Kratos pump (Spectro-flow 400), a cooled automatic BT 7041 sample injector (Biotronik) having a 75 μl sample loop, a Nucleosil C18 column (100*3 mm, 5 μm particles of Chrompack), a UV detector (Kratos) Spectroflow 757 (wavelength: 280 nm, measurement range: 0.1 AUFS, time constant: 0.5 s) and a Spectra Physics integrator (SP 4270). The eluent (725 ml of methanol, 275 ml of water and 0.1 ml of acetic acid) was supplied at a flow rate of 0.7 ml/minute and at a pressure of about 100 bar.
When doing this, the measurement range which has been set can be examined and altered if necessary. It is also vital to measure the test substances at the particular test concentration (e.g.: 10^-5 M) in PM16 before the cell incubation, since the test substances might conceal the LTB4 peak. If this is the case, a lower concentration must be selected.
(§1) The values in the table show the concentration of the test substance which was employed in μM and, besides this, the residual activity measured in percent based on the control, which was set to be 100%. The interleukin is additionally indicated in test 4.

[2] = system: TNFα release from mononuclear cells; assay: Test 4: cytokine release from LPS-stimulated mononuclear cells, TNFα; type: cell-based; conditions: Homo sapiens, read-out: Test 4 residual activity (TNFα release), percent of control
Description: (§2) Test 4. Stimulation of the cytokine release
(§3) Isolation of mononuclear cells from human blood
(§4) 10 ml of human blood, stabilized with 1 ml of 3.8% sodium citrate solution, were diluted with 10 ml of PM16 (Serva, Heidelberg) and underlaid with 15 ml of Lymphoprep (Dr. Molter GmbH, Heidelberg). The samples were centrifuged, at room temperature for 40 minutes, at 400×g (1600 rpm, Minifuge 2, Heraeus, Osterode). The mononuclear cells are visible as a white ring at the Lymphoprep/plasma interface. This ring was carefully removed with a syringe, diluted with an equal volume of PM16, and centrifuged for 10 minutes at 400×g. The sediment was washed with approximately 10 ml of RPMI1640 (+300 mg/l L-glutamine, Gibco, Eggenstein) (Wallis, 1986). After the cells had been resuspended in approximately 1 ml of RPMI1640 (+300 mg/l L-glutamine+25 mM HEPES+100 μg/ml streptomycin+100 μg/ml penicillin), the cell density was determined using a Coulter Counter JT (Coulter Diagnostics) and adjusted to 5*10^6 /ml. Typically, the cells are composed of 90% lymphocytes and 10% monocytes.
(§5) 230 μl of mononuclear cells were incubated, at 37° C.; 5% CO2 for 20-22 hours (5 hours in the case of IL-6), with 10 μl of test substance (10 μM in DMSO/water, 1/10) and 10 μl of lipopolysaccharide (LPS; 500 μg dissolved in 1 ml of DMSO and diluted 1/10 with water prior to beginning the test; from Salmonella abortus equi, Sigma, Deisenhofen). The samples were cooled down to 0° C. in an ice bath and centrifuged in a Sigma centrifuge (2 minutes; 2000 rpm). Aliquots of the supernatant are measured with an ELISA (Biermann, Bad Nauheim). The abbreviation IL stands for interleukin and TNF for tumor necrosis factor alpha.
as §1

[3] = system: cyclooxygenase-dependent thrombocyte aggregation; assay: Test 5: Cyclooxygenase-dependent thrombocyte aggregation; type: cell-based, human; conditions: Homo sapiens, arachidonic acid as inducer, read-out: Test 5 residual activity (cyclooxygenase-dependent thrombocyte aggregation), percent of control
Summary of the method: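 Citrated human platelet-rich plasma was preincubated 10 min at 37 °C with test substance diluted 1:30 in 50 mM Tris-HCl pH 8.0, 90 mM NaCl. Aggregation was triggered with arachidonic acid (5 mg/ml, 20 μl) under 800 rpm stirring in an aggregometer. Values are tested concentration (μM) and residual activity as % of control.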

adjuvant/arthritis model = assay: Test 6: antiarthritic effect in the adjuvant/arthritis model; type: in vivo, rat (Wistar-Lewis); conditions: Rattus norvegicus, po, 408 h, 50 mg/kg orally, daily for 17 days; rat; read-out: Test 6 Paw volume (% inhibition)
Description: Male rats of a Wistar-Lewis strain (Mollegaard/Denmark) were used as experimental animals. The body weight is between 160 and 200 g. Subplantar injection of 0.1 ml of Freund's adjuvant (=6 mg of Mycobacterium butyricum suspension, Difco Lab./Detroit, Mich. USA, per ml of heavy white paraffin oil, Merck, Darmstadt) into the root of the tail resulted, on the 10th to 14th day of the experiment, in immunopathological processes and chronic inflammations, particularly in the form of arthritic and periarthritic symptoms, at other sites in the body (secondary lesions). The animals were fed ad libitum with the standard feed Altromin-R, from Altrogge, Lage, and provided with tap water. The animals were given 60 mg of codein per kg as an analgesic from the 14th day to the end of the experiment. The test substances were administered orally as a CMC suspension, in an injection volume of 1 ml/100 g of body weight, on each day (in all for 17 days), beginning on the day of the adjuvant administration. The volumes of each of the hind paws, and the body weight, were measured on the first and on the 18th day of the experiment. Diminution in the increase of paw volume, as compared with the untreated control group, served as the criterion of activity, with the two hind paws being averaged.

[4] = system: IL-1 release from mononuclear cells; assay: Test 4: cytokine release from LPS-stimulated mononuclear cells, IL-1; type: cell-based; conditions: Homo sapiens
Description: as §2, §3, §4, §5, §1

[5] = system: tumor cell line 20-10-5S (hybridoma cell line); assay: Test 8: Inhibition of tumor cell proliferation; type: cell-based; conditions: 48 h + 16 h tritiated thymidine incorporation; 20-10-5S cells
Description: The tumor cell line 20-10-5S (hybridoma cell line, supplied by ATCC (American Type Culture Collection)), which produces an antibody against mouse T cells) was used for determining the antiproliferative property of test substances. The cells were cultured, at 37° C. and 5% C2, under serum-free conditions in CG medium (cell-growth medium=Iscove-ATL (+albumin+transferrin+lipids); from Vitromex, Vilshofen). Only cells which were in the logarithmic phase of growth were used for the test mixture. The test substances were pipetted in various concentrations (from 1 to 50 μM), together with 4×10^3 20-10-5S cells, into round-bottomedmicrotiter plates (total volume with medium, 200 μl). After an incubation time of 48 h (37° C. and 5% CO2), 25 μl of tritiated thymidine (=0.25 μCi/test mixture, specific activity, 23 Ci/mM) were added to the plates. During the subsequent 16 h, the radioactively labeled thymidine was incorporated into the DNA of the growing cells. The samples were filtered off with suction on glass fiber filters and the incorporated radioactivity was measured using a β counter (Beta Plate System 1205 from Wallac).

[6] = system: PAF-induced asthma attack; assay: Test 7: antiasthmatic effect, PAF-induced asthma attack; type: in vivo; conditions: Cavia porcellus; i.d., 15 minutes before PAF; guinea pig
Summary of the method: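 Anesthetized guinea pigs given PAF through a jugular vein cannula; test compounds dosed i.v. through the same cannula 5 min before PAF, or intraduodenally via surgical cannula 15 min before. Bronchial width recorded by overflow pneumonogram before and after dosing; ED50 in mg/kg i.d. against the PAF-induced attack.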

[7] = system: IL-1α release from mononuclear cells; assay: Test 4: cytokine release from LPS-stimulated mononuclear cells, IL-1α; type: cell-based; conditions: Homo sapiens, read-out: Test 4 residual activity (IL-1α release), percent of control
Description: as §2, §3, §4
as §5, with “([…])” for “(10 μM in DMSO/water, 1/10)”
as §1

[8] = system: IL-1β release from mononuclear cells; assay: Test 4: cytokine release from LPS-stimulated mononuclear cells, IL-1β; type: cell-based; conditions: Homo sapiens, read-out: Test 4 residual activity (IL-1β release), percent of control
Description: as §2, §3, §4, §5, §1

[9] = system: polymorphonuclear leucocytes (PMNL); assay: Test 1: Release of proteolytic activity from human PMNL; type: cell-based; conditions: Homo sapiens, PMNL, read-out: Test 1 residual activity (release of proteolytic activity), percent of control
Summary of the method: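 Human peripheral-blood PMNL (5·10^6 cells/ml in PBS with 7.5 mM glucose) preincubated 20 min at 37° C. with compound, then primed with cytochalasin B (5 μg/ml) and TNF (30 ng/ml), and stimulated with fMLP (10 nmol/l) for 60 min. Released protease in supernatant read with methoxysuccinyl-nitroanilide substrate at 405 nm over 0-60 min, pH 7.5.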

[10] = IL-1, read-out: Test 4 residual activity (IL-1 release), percent of control

Compound: CC(C)(C)c1cc(C2=NOC(c3ccncc3)C2)cc(C(C)(C)C)c1O (stereo not shown) [Example 10]
- activity at 1 µM [1]: 89%
- activity at 10 µM [1]: 20%
- activity at 10 µM [2]: 78%
- activity at 100 µM [3]: 98%

- IC50 [5]: < 5 µM
Compound: CC(C)(C)c1cc(-c2cc(CO)on2)cc(C(C)(C)C)c1O [Example 24]
- inhibition in vivo at 50 mg/kg (adjuvant/arthritis model): 43%
- activity at 10 µM [4, 10]: 86%
- activity at 10 µM [3]: 94%

- IC50 [5]: < 5 µM
Compound: CC(C)(C)c1cc(-c2cc(CCO)on2)cc(C(C)(C)C)c1O [Example 25]
- activity at 1 µM [1]: 85%
- activity at 10 µM [1]: 29%
- ED50 [6]: 3 to 10 mg/kg
- inhibition in vivo at 50 mg/kg (adjuvant/arthritis model): 44%
- activity at 10 µM [2]: 82%
- activity at 10 µM [7]: 62%
- activity at 10 µM ([8]; 10 μM): 93%
- activity at 10 µM [3]: 86%

Compound: CC(C)(OCc1cc(-c2cc(C(C)(C)C)c(O)c(C(C)(C)C)c2)no1)C(=O)Nc1nnn[nH]1 [Example 38, 2-(3-(4-Hydroxy-3,5-di-tert-butylphenyl)isoxazol-5-ylmethoxy)-N-(1H-tetrazol-5-yl)isobutyramide]
- activity at 1 µM [7]: 89%
- activity at 1 µM [8]: 85%
- activity at 100 µM [3]: 90%

Compound: CC(C)(C)c1cc(-c2cc(CCC(=O)Nc3nnn[nH]3)on2)cc(C(C)(C)C)c1O [Example 46, 3-(3-(4-Hydroxy-3,5-di-tert-butylphenyl)isoxazol-5-yl)-N-(1H-tetrazol-5-yl)propionamide]
- activity at 10 µM [2]: 79%
- activity at 1 µM [7]: 77%
- activity at 1 µM [8]: 85%
- activity at 100 µM [3]: 90%

- IC50 [5]: 5 to 10 µM
Compound: CC(C)(C)c1cc(-c2cc(/C=C/C(=O)O)on2)cc(C(C)(C)C)c1O [Example 47, 3-(4-Hydroxy-3,5-di-tert-butylphenyl)isoxazol-5-ylacrylic acid]
- ED50 [6]: 10 to 50 mg/kg
- activity at 10 µM [2]: 64%
- activity at 1 µM [7]: 89%
- activity at 10 µM [7]: 72%
- activity at 1 µM ([9]; 1 μM): 85%
- activity at 10 µM [9]: 38%
- activity at 100 µM [9]: 17%

Compound: CC(C)(C)c1cc(C2CC(c3nccs3)=NO2)cc(C(C)(C)C)c1O (stereo not shown) [Example 61, 3-(2-Thiazolyl)-5-(4-hydroxy-3,5-di-tert-butylphenyl)-2-isoxazoline]
- activity at 10 µM [1]: 3%
- activity at 10 µM [2]: 68%
- activity at 1 µM [7]: 94%
- activity at 100 µM [3]: 94%
- activity at 100 µM [9]: 80%

Compound: CC(C)(C)c1cc(C2CC(CCC(=O)Nc3nnn[nH]3)=NO2)cc(C(C)(C)C)c1O (stereo not shown) [Example 64, 5-(4-Hydroxy-3,5-di-tert-butyl)phenyl-2-isoxazoline-3-propionic acid-N-(1H-tetrazol-5-yl)amide]
- activity at 10 µM ([4]; IL-1 (second entry), read-out: Test 4 residual activity (IL-1 release, second IL-1 entry of Ex. 64), percent of control): 82%
- activity at 1 µM ([4]; IL-1, 1 μM, read-out: Test 4 residual activity (IL-1 release), percent of control): 85%
- activity at 10 µM [4, 10]: 68%
- activity at 100 µM [3]: 97%
- activity at 10 µM [9]: 96%
- activity at 100 µM [9]: 72%
